The values below come from patent US12428406B2 (PMV Pharmaceuticals, Inc., priority 2019, dated 2025).

Each structure is given as a SMILES string.

T1 sequence (P04637 94-312, change not shown): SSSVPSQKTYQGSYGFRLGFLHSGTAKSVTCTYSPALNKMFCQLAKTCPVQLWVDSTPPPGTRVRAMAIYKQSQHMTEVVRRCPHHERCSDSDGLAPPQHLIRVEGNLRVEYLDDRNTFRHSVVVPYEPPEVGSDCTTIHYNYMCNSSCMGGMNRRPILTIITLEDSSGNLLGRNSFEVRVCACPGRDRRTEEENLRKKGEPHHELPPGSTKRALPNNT

The test addresses T1, p53 Y220C (Homo sapiens, UniProt P04637, Y220C).
T1 construct: The recombinant protein was a truncation mutant containing only amino acids 94-312 of p53; made in house; host or cells: E. coli
Kind of test: In vitro DNA binding activity assay (HTRF / TR-FRET): stabilization of p53 Y220C and increase of its DNA binding activity. The format is biochemical. The settings on record: recombinant His-tagged p53 Y220C DNA binding domain (aa 94-312), biotin-labeled consensus DNA, incubated at 27° C. or 29° C. for 60 min. In short, it runs like this:
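Compounds from 4.5 mM DMSO stocks, 3-fold serial dilutions; room-temperature incubations of 15 and 20 min. SC150 = concentration raising DNA binding by 50% over no-compound control.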
As to `COc1cc(C(N)=O)c(F)cc1NCC#Cc1cc2c(NC3CCN(C)CC3)cccc2n1CC(F)(F)F` [Compound 514A, 2-fluoro-5-methoxy-4-[(3-{4-[(1-methylpiperidin-4-yl)amino]-1-(2,2,2-trifluoroethyl)-1H-indol-2-yl}prop-2-yn-1-yl)amino]benzamide], the “SC150 (concentration of the compound required to increase the DNA binding activity by 50%)” value was “+ (+ = 0 μM ≤ SC150 < 0.05 μM)”. To `COc1cc(C(F)(F)F)ccc1NCC#Cc1cc2c(NC3CCN(C)CC3)cccc2n1CC(F)(F)F` [Compound 515A, 2-(3-{[2-methoxy-4-(trifluoromethyl)phenyl]amino}prop-1-yn-1-yl)-N-(1-methylpiperidin-4-yl)-1-(2,2,2-trifluoroethyl)-1H-indol-4-amine] belongs “++ (++ = 0.05 μM ≤ SC150 < 0.1 μM)”. In the case of `CNC(=O)c1cc(OC)c(NCC#Cc2cc3c(NC4CCN(C)CC4)cccc3n2CC(F)(F)F)cc1F` [Compound 516A, 2-fluoro-5-methoxy-N-methyl-4-[(3-{4-[(1-methylpiperidin-4-yl)amino]-1-(2,2,2-trifluoroethyl)-1H-indol-2-yl}prop-2-yn-1-yl)amino]benzamide] it was “+ (+ = 0 μM ≤ SC150 < 0.05 μM)”; in that of `COc1cc(S(C)(=O)=O)ccc1NCC#Cc1cc2c(NC3CCN(C)CC3)cccc2n1CC1CO1` (stereo not shown) [Compound 517A, 2-{3-[(4-methanesulfonyl-2-methoxyphenyl)amino]prop-1-yn-1-yl}-N-(1-methylpiperidin-4-yl)-1-[(oxiran-2-yl)methyl]-1H-indol-4-amine], “+++ (+++ = 0.1 μM ≤ SC150 < 0.2 μM)”.

As for `COc1cc(S(C)(=O)=O)cc(F)c1NCC#Cc1cc2c(NC3CCN(C)CC3)cccc2n1CC(F)(F)F` [Compound 519A], the “SC150 (concentration of the compound required to increase the DNA binding activity by 50%)” value is listed as “++++ (++++ = 0.2 μM ≤ SC150 < 1 μM)”. As to `COc1cc(S(C)(=O)=O)ccc1NCC#Cc1c(C)c2c(NC3CCN(C)CC3)cccc2n1CC(F)(F)F` [Compound 520A, 2-{3-[(4-methanesulfonyl-2-methoxyphenyl)amino]prop-1-yn-1-yl}-3-methyl-N-(1-methylpiperidin-4-yl)-1-(2,2,2-trifluoroethyl)-1H-indol-4-amine], the “SC150 (concentration of the compound required to increase the DNA binding activity by 50%)” value is recorded as “+++ (+++ = 0.1 μM ≤ SC150 < 0.2 μM)”.

Regarding `COc1cc(S(C)(=O)=O)c(F)cc1NCC#Cc1cc2c(NC3CCN(C)CC3)cccc2n1CC(F)(F)F` [Compound 522A, 2-{3-[(5-fluoro-4-methanesulfonyl-2-methoxyphenyl)amino]prop-1-yn-1-yl}-N-(1-methylpiperidin-4-yl)-1-(2,2,2-trifluoroethyl)-1H-indol-4-amine], the “SC150 (concentration of the compound required to increase the DNA binding activity by 50%)” value is recorded as “+ (+ = 0 μM ≤ SC150 < 0.05 μM)”. Turning to `CN1CCC(Nc2cccc3c2cc(C#CCNc2ccc(S(C)(=O)=O)s2)n3CC(F)(F)F)CC1` [Compound 523A], the “SC150 (concentration of the compound required to increase the DNA binding activity by 50%)” value was “+ (+ = 0 μM ≤ SC150 < 0.05 μM)”. To `CNC(=O)c1ccc(NCC#Cc2cc3c(NC4CCN(C)CC4)cccc3n2CC(F)(F)F)s1` [Compound 524A, N-methyl-5-((3-(4-((1-methylpiperidin-4-yl)amino)-1-(2,2,2-trifluoroethyl)-1H-indol-2-yl)prop-2-yn-1-yl)amino)thiophene-2-carboxamide] belongs “+ (+ = 0 μM ≤ SC150 < 0.05 μM)”. In the case of `CN1CCC(Nc2cccc3c2cc(C#CCNc2ccc(C(=O)N(C)C)s2)n3CC(F)(F)F)CC1` [Compound 525A, N,N-dimethyl-5-((3-(4-((1-methylpiperidin-4-yl)amino)-1-(2,2,2-trifluoroethyl)-1H-indol-2-yl)prop-2-yn-1-yl)amino)thiophene-2-carboxamide] it was “+ (+ = 0 μM ≤ SC150 < 0.05 μM)”; in that of `COc1cc(S(C)(=O)=O)ccc1NCC#Cc1cc2c(N[C@H]3CCN(C)C[C@H]3OC)cccc2n1CC(F)(F)F` [Compound 531A, 2-{3-[(4-methanesulfonyl-2-methoxyphenyl)amino]prop-1-yn-1-yl}-N-[(3R,4S)-3-methoxy-1-methylpiperidin-4-yl]-1-(2,2,2-trifluoroethyl)-1H-indol-4-amine], “++ (++ = 0.05 μM ≤ SC150 < 0.1 μM)”; in that of `COc1cc(S(C)(=O)=O)ccc1NCC#Cc1cc2c(N[C@@H]3CCN(C)C[C@@H]3OC)cccc2n1CC(F)(F)F` [Compound 532A, 2-{3-[(4-methanesulfonyl-2-methoxyphenyl)amino]prop-1-yn-1-yl}-N-[(3S,4R)-3-methoxy-1-methylpiperidin-4-yl]-1-(2,2,2-trifluoroethyl)-1H-indol-4-amine], “++ (++ = 0.05 μM ≤ SC150 < 0.1 μM)”. In the case of `CCN1CCC(Nc2cccc3c2cc(C#CCNc2ccc(S(C)(=O)=O)cc2OCF)n3CC(F)(F)F)CC1` [Compound 534A, N-(1-ethylpiperidin-4-yl)-2-(3-{[2-(fluoromethoxy)-4-methanesulfonylphenyl]amino}prop-1-yn-1-yl)-1-(2,2,2-trifluoroethyl)-1H-indol-4-amine] it was “+ (+ = 0 μM ≤ SC150 < 0.05 μM)”; in that of `CCN1CCC(Nc2cccc3c2cc(C#CCNc2ccc(C(=O)NC)cc2OC)n3CC(F)(F)F)CC1` [Compound 535A, 4-[(3-{4-[(1-ethylpiperidin-4-yl)amino]-1-(2,2,2-trifluoroethyl)-1H-indol-2-yl}prop-2-yn-1-yl)amino]-3-methoxy-N-methylbenzamide], “+ (+ = 0 μM ≤ SC150 < 0.05 μM)”.

Take `CCN1CCC(Nc2cccc3c2cc(C#CCNc2ccc(S(C)(=O)=O)cc2OCC#N)n3CC(F)(F)F)CC1` [Compound 536A]: the “SC150 (concentration of the compound required to increase the DNA binding activity by 50%)” value is reported as “+ (+ = 0 μM ≤ SC150 < 0.05 μM)”.

Regarding `CCN1CCC(Nc2cccc3c2cc(C#CCNc2ccc(S(C)(=O)=O)cc2OC)n3CC(F)(F)F)CC1` [Compound 537A], the “SC150 (concentration of the compound required to increase the DNA binding activity by 50%)” value is “+ (+ = 0 μM ≤ SC150 < 0.05 μM)”. To `CCN1CCC(Nc2cccc3c2cc(C#CCNc2ccc(S(N)(=O)=O)cc2OC)n3CC(F)(F)F)CC1` [Compound 538A, 4-[(3-{4-[(1-ethylpiperidin-4-yl)amino]-1-(2,2,2-trifluoroethyl)-1H-indol-2-yl}prop-2-yn-1-yl)amino]-3-methoxybenzene-1-sulfonamide] belongs “+ (+ = 0 μM ≤ SC150 < 0.05 μM)”. To `CNC(=O)c1ccc(NCC#Cc2cc3c(NC4CCN(C(C)C)CC4)cccc3n2CC(F)(F)F)c(OC)c1` [Compound 539A, 3-methoxy-N-methyl-4-{[3-(4-{[1-(propan-2-yl)piperidin-4-yl]amino}-1-(2,2,2-trifluoroethyl)-1H-indol-2-yl)prop-2-yn-1-yl]amino}benzamide] belongs “+ (+ = 0 μM ≤ SC150 < 0.05 μM)”; to `CC(C)N1CCC(Nc2cccc3c2cc(C#CCNc2ccc(S(C)(=O)=O)cc2OCC#N)n3CC(F)(F)F)CC1` [Compound 540A], “+ (+ = 0 μM ≤ SC150 < 0.05 μM)”. Take `CC(C)N1CCC(Nc2cccc3c2cc(C#CCNc2ccc(S(C)(=O)=O)cc2OCF)n3CC(F)(F)F)CC1` [Compound 541A, 2-(3-{[2-(fluoromethoxy)-4-methanesulfonylphenyl]amino}prop-1-yn-1-yl)-N-[1-(propan-2-yl)piperidin-4-yl]-1-(2,2,2-trifluoroethyl)-1H-indol-4-amine]: the “SC150 (concentration of the compound required to increase the DNA binding activity by 50%)” value is given as “+ (+ = 0 μM ≤ SC150 < 0.05 μM)”. To `COc1cc(S(C)(=O)=O)ccc1NCC#Cc1cc2c(NC3CCN(C(C)C)CC3)cccc2n1CC(F)(F)F` [Compound 542A, 2-{3-[(4-methanesulfonyl-2-methoxyphenyl)amino]prop-1-yn-1-yl}-N-[1-(propan-2-yl)piperidin-4-yl]-1-(2,2,2-trifluoroethyl)-1H-indol-4-amine] belongs “+ (+ = 0 μM ≤ SC150 < 0.05 μM)”; to `COc1cc(S(N)(=O)=O)ccc1NCC#Cc1cc2c(NC3CCN(C(C)C)CC3)cccc2n1CC(F)(F)F` [Compound 543A, 3-methoxy-4-{[3-(4-{[1-(propan-2-yl)piperidin-4-yl]amino}-1-(2,2,2-trifluoroethyl)-1H-indol-2-yl)prop-2-yn-1-yl]amino}benzene-1-sulfonamide], “+ (+ = 0 μM ≤ SC150 < 0.05 μM)”; to `COc1cc(S(C)(=O)=O)ccc1NCC#Cc1cc2c(NC3CCN(CCOCCOCCO)CC3)cccc2n1CC(F)(F)F` [Compound 544A, 2-[2-(2-{4-[(2-{3-[(4-methanesulfonyl-2-methoxyphenyl)amino]prop-1-yn-1-yl}-1-(2,2,2-trifluoroethyl)-1H-indol-4-yl)amino]piperidin-1-yl}ethoxy)ethoxy]ethan-1-ol], “+ (+ = 0 μM ≤ SC150 < 0.05 μM)”. In the case of `COc1cc(S(C)(=O)=O)ccc1NCC#Cc1cc2c(NC3CCN(CC4COC(=O)O4)CC3)cccc2n1CC(F)(F)F` (stereo not shown) [Compound 545A, 4-({4-[(2-{3-[(4-methanesulfonyl-2-methoxyphenyl)amino]prop-1-yn-1-yl}-1-(2,2,2-trifluoroethyl)-1H-indol-4-yl)amino]piperidin-1-yl}methyl)-1,3-dioxolan-2-one] it was “+ (+ = 0 μM ≤ SC150 < 0.05 μM)”; in that of `COc1cc(S(N)(=O)=O)ccc1NCC#Cc1cc2c(NC3CCN(CC4COC(=O)O4)CC3)cccc2n1CC(F)(F)F` (stereo not shown) [Compound 546A, 3-methoxy-4-({3-[4-({1-[(2-oxo-1,3-dioxolan-4-yl)methyl]piperidin-4-yl}amino)-1-(2,2,2-trifluoroethyl)-1H-indol-2-yl]prop-2-yn-1-yl}amino)benzene-1-sulfonamide], “+ (+ = 0 μM ≤ SC150 < 0.05 μM)”.
